Test results taken from BindingDB's records for doi:10.1038/nbt1059 (Plexxikon, 2005).

Assays:
[1] = target: cAMP-specific 3',5'-cyclic phosphodiesterase 4D [372-376,381-715,S375G,I381V,S383G,G384S,V385H,K386M) (Homo sapiens, UniProt Q08499, S375G/I381V/S383G/G384S/V385H/K386M); experiment: Phosphodiesterase (PDE) Inhibition Assay
Procedure: (§1) Phosphodiesterase activities were assayed in the presence of inhibitor compounds. Measurement takes advantage of the selective binding of 5-AMP or 5-GMP (and not cAMP or cGMP) to yttrium silicate beads with embedded scintillant. Hydrolysis is quantified by reading in a scintillation counter (Trilux, Wallac). The cAMP and cGMP concentrations used were far below the Km of PDE.

[2] = target: T1, cAMP-specific 3',5'-cyclic phosphodiesterase 4B [316-320,321-700,S319G,N320S,N321H,T322M] (Homo sapiens, UniProt Q07343, S319G/N320S/N321H/T322M); experiment: Phosphodiesterase (PDE) Inhibition Assay; details: pH 7.5; 30 °C
T1 construct: 316-320,321-700
Procedure: as §1

IC50 [1] | IC50 [2] | SMILES
> 200 µM | > 200 µM | Cc1n[nH]c(C)c1C(=O)O [3,5-dimethyl-1H-pyrazole-4-carboxylic acid]
> 200 µM | > 200 µM | CCOC(=O)c1c[nH]nc1C(F)(F)F [5-(trifluoromethyl)-1H-pyrazole-4-carboxylic acid ethyl ester]
4.6 µM | 17 µM | CCOC(=O)c1c(C)nn(-c2ccc([N+](=O)[O-])cc2[N+](=O)[O-])c1C [ethyl 1-(2,4-dinitrophenyl)-3,5-dimethyl-1H-pyrazole-4-carboxylate]
0.019 µM | – | CCOC(=O)c1c(C)nn(-c2ccccc2Cl)c1C [ethyl 1-(2-chlorophenyl)-3,5-dimethyl-1H-pyrazole-4-carboxylate]
– | 0.35 µM | CCOC(=O)c1c(C)nn(-c2ccc(N)cc2)c1C [ethyl 1-(4-aminophenyl)-3,5-dimethyl-1H-pyrazole-4-carboxylate]
– | 5.9 µM | CCOC(=O)c1c(C)nn(-c2ccc(OC)cc2)c1C [ethyl 1-(4-methoxyphenyl)-3,5-dimethyl-1H-pyrazole-4-carboxylate]
14 µM | 19 µM | CCOC(=O)c1c(C)nn(-c2ccc(C(C)(C)C)cc2)c1C [ethyl 1-(4-tert-butylphenyl)-3,5-dimethyl-1H-pyrazole-4-carboxylate]
97 µM | 160 µM | CCOC(=O)c1c(C)nn(-c2cc(C(F)(F)F)cc(C(F)(F)F)c2)c1C [ethyl 1-[3,5-bis(trifluoromethyl)phenyl]-3,5-dimethyl-1H-pyrazole-4-carboxylate]
1 µM | 0.84 µM | CCOC(=O)c1c(C)nn(-c2ccc([N+](=O)[O-])cc2)c1C [ethyl 3,5-dimethyl-1-(4-nitrophenyl)-1H-pyrazole-4-carboxylate]
9.1 µM | 13 µM | CCOC(=O)c1c(C)nn(-c2ccc(S(N)(=O)=O)cc2)c1C [ethyl 3,5-dimethyl-1-(4-sulfamoylphenyl)-1H-pyrazole-4-carboxylate]
19 µM | 17 µM | CCOC(=O)c1c(C)nn(-c2cccc3cccnc23)c1C [ethyl 3,5-dimethyl-1-(quinolin-8-yl)-1H-pyrazole-4-carboxylate]
21 µM | 32 µM | CCOC(=O)c1c(C)nn(-c2ccc(OC(F)(F)F)cc2)c1C [ethyl 3,5-dimethyl-1-[4-(trifluoromethoxy)phenyl]-1H-pyrazole-4-carboxylate]
– | 0.31 µM | CCOC(=O)c1c(C)nn(-c2ccccc2)c1C [ethyl 3,5-dimethyl-1-phenyl-1H-pyrazole-4-carboxylate]
– | 60 µM | CCOC(=O)c1c(C)n[nH]c1C [ethyl 3,5-dimethyl-1H-pyrazole-4-carboxylate]
0.88 µM | 1.5 µM | CCOC(=O)c1cn(-c2ccccc2)nc1-c1ccc(Cl)cc1 [ethyl 3-(4-chlorophenyl)-1-phenyl-1H-pyrazole-4-carboxylate]
> 200 µM | > 200 µM | CCOC(=O)c1cn[nH]c1N [ethyl 3-amino-1H-pyrazole-4-carboxylate]
19 µM | 15 µM | CCOC(=O)c1c(-c2ccc(OC)cc2)n[nH]c1N [ethyl 3-amino-5-(4-methoxyphenyl)-1H-pyrazole-4-carboxylate]
> 200 µM | > 200 µM | CCOC(=O)c1cn[nH]c1C [ethyl 3-methyl-1H-pyrazole-4-carboxylate]
50 µM | 25 µM | CCOC(=O)c1cnn(-c2ncnc3sc4c(c23)CCCC4)c1N [ethyl 5-amino-1-{8-thia-4,6-diazatricyclo[7.4.0.0^{2,7}]trideca-1(9),2(7),3,5-tetraen-3-yl}-1H-pyrazole-4-carboxylate]
> 200 µM | > 200 µM | COC(=O)c1c(-c2cc(C)on2)n[nH]c1C [methyl 3-methyl-5-(5-methyl-1,2-oxazol-3-yl)-1H-pyrazole-4-carboxylate]
